Peptide text beside a SMILES is read from it. * marks the point of attachment. Cbz = O=C(OCc1ccccc1)*
Key:
[1] = system: polarized human bronchial epithelial cells; type: cell-based
Procedure: Primary culture of human bronchial epithelia and reagents utilized. Primary human airway epithelial cells were collected by enzymatic digestion of bronchial samples from lung transplants, as previously described (Kondo et al., 1991; Zabner et al., 1996). Isolated primary airway cells were seeded at a density of 5×10^5 cells/cm^2 onto collagen-coated Millicell-HA culture inserts (Millipore Corp., Bedford, Mass.). Primary cultures were grown at the air-liquid interface for more than 2 weeks, by which time differentiation into a mucociliary epithelium occurs. The culture medium, used to feed only the basolateral side of the cells, contained 49% DMEM, 49% Ham's F12 and 2% Ultraser G (BioSepra, Cedex, France). Dimethyl Sulphoxide (DMSO), camptothecin (Camp), etoposide (Etop), aphidicolin (Aphi), hydroxyurea (HU) and genistein (Geni) were purchased from Sigma (St. Louis, Mo.). Tripeptidyl aldehyde proteasome inhibitors N-Acetyl-L-Leucyl-L-Leucyl-Norleucine (LLnL) and benzyloxycarbonyl-L-leucyl-L-leucyl-L-leucinal (Z-LLL) were purchased from Calbiochem-Novabiochem Corporation (La Jolla, Calif.). Ubiquitin ligase (E3) inhibitors were obtained from Bachem Bioscience Inc. (King of Prussia, Pa.). Anti-AAV capsid monoclonal antibody (Anti-VP1, 2 and 3) was purchased from American Research Products (Belmont, Mass.) and anti-ubiquitin antibody was purchased from Santa Cruz Biotechnology Inc. (Santa Cruz, Calif.).
Transduction of polarized airway epithelial cells and primary human fibroblasts. rAAV infection of fully differentiated bronchial cells was performed as described in Duan et al. (1998). For infections from the apical surface of the airway cells, 5 μl rAAV was mixed with 50 μl of culture media and applied directly onto the apical compartment of Millicell inserts (MOI=10,000 particles/cell). During apical infection, the basolateral side of the Millicell was continuously bathed in culture media. Gene transfer to the basal side was performed by inverting Millicell inserts and applying viral vector to the bottom of the supporting filter membrane in a 50 μl volume for 2 hours. Subsequently, Millicell inserts were returned to the upright position, in the continued presence of the original viral inoculum plus an additional 450 μl of media. For both apical and basolateral infections, rAAV containing media was removed after 24 hours and replaced with either fresh culture media (for the basal side) or exposed to air (for the apical side). To test the effect of different agents on the efficiency of AAV transduction in polarized airway cells, 1 μl of each solution was mixed with AAV prior to infection of airway epithelia. Agents were usually presented during the 24 hours AAV infection period unless indicated otherwise. Most of the agents were dissolved in DMSO except for hydroxyurea (dissolved in phosphate buffered saline), H-Leu-Ala-OH (dissolved in 0.9% glacial acetic acid) and H-His-Ala-OH (dissolved in 50% methanol). The working concentrations of the agents were as follows: 0.1 μM camptothecin, 10 μM etoposide, 5 μg/ml aphidicolin, 40 mM hydroxyurea, 50 μM genistein, 40 μM LLnL and 4 μM Z-LLL. When the ubiquitin ligase (E3) inhibitors (H-Leu-Ala-OH and H-His-Ala-OH) were used, airway cells were pretreated with a combination of both inhibitors at a final concentration of 2 mM for 60 minutes prior to infection, followed by the continued presence of inhibitor (0.2 mM) during the entire 24 hours infection period from the basolateral surface. Studies involving EGTA treatment were performed by transiently treating the apical membrane of polarized airway epithelia with 3 mM EGTA in water for 10 minutes (Duan et al., 1998). Following hypotonic EGTA treatment, cultures were washed twice with culture medium and infected with rAAV in the presence or absence of 40 μM LLnL. Human primary fibroblast cells (P4) were maintained in 10% fetal bovine serum (FBS), 1% penicillin and streptomycin, and 89% DMEM. […]

[2] = Toxicity of proteasome inhibitors in mice; type: in vivo, mouse; conditions: 10, 100, and 1000 fold higher effective doses; intra-tracheal and systemic (IV) delivery
Procedure: Long-term enhancement of rAAV transduction by proteasome inhibitor in vivo. To evaluate the potential utility of proteasome inhibitors for in vivo gene therapy, both the toxicity and efficacy of these agents for in vivo rAAV mediated gene transfer in the mouse lung was tested. To assess the toxicity of these proteasome inhibitors in mice, 10, 100, and 1000 fold higher effective doses of LLnL or Z-LLL were administered than used to induce gene transfer in polarized airway cells, using both intra-tracheal and systemic (IV) delivery. No toxicity was indicated by histologic evaluation of the lung and liver or was evidenced by the death of animals. To investigate whether these proteasome inhibitors could improve rAAV transduction in vivo, AV.LacZ (5×10^10 particles) was delivered either alone or in the presence of 400 μM Z-LLL by intranasal administration. Mouse lungs were harvested at 3, 10 and 150 days post-infection to evaluate short and long term effects. […] Targeted transgene expression was predominantly confined to the conducting airways, rather than in the parenchyma. Alveolar cells were rarely transduced. […] The range of transgene expression in distal and proximal airways was 0 to 4% and 5 to 18%, respectively.

[3] = system: mouse lung airway epithelium; test: AV.LacZ gene transfer to mouse lung with Z-LLL (nasal aspiration, X-gal morphometry); type: in vivo; conditions: 400 μM Z-LLL; 3 and 10 days post infection
Procedure: In vivo studies in mice. Animal studies were performed in accordance with the institutional guidelines of the University of Iowa. To determine the effect of the proteasome inhibitor on AAV mediated gene transfer in mouse lung, 6 week-old BALB/c mice were lightly anesthetized using a methoxyflurane chamber. AV.LacZ (5×10^10 particles) was administered alone or with 400 μM Z-LLL in a 10 μl instillation by nasal aspiration as described by Walters et al. (2000). To prevent unforeseen toxicity of DMSO solvent, the proteasome inhibitor Z-LLL was dissolved in ethanol as a 40 mM stock solution and was included in the viral inoculum at 1% final concentration. Viral infection controls in the absence of Z-LLL also contained a 1% final concentration of ethanol. […] Lungs (N=3 for each condition) were embedded in OCT (optimal cutting temperature; Baxter, Warrendale, Pa.) and 15 μm serially sections were analyzed for gene transfer by calculating the percentage of positive cells in the airway epithelium. The diameter of the airway was recorded for classification (>360 μm, 260-350 μm, 160-250 μm, <150 μm) of results following morphometric analysis. Greater than 150 airway cross-sections were quantified for each experimental condition.

mouse lung = test: AV2Luc / AV2/5Luc gene transfer to BL6 mouse lung with Z-LLL and/or Dox; type: in vivo; conditions: 200 μM
HeLa cells = test: AV2eGFP versus scAV2eGFP expression in Hela cells with hydroxyurea; type: cell-based; conditions: 5 mM pretreatment; 24 hours post-infection
Procedure: A set of viral vectors was prepared of half-genome length was prepared. Four GFP-based viruses were generated for this analysis (AV2eGFP, scAV2eGFP, AV2/5eGFP, and scAV2/5eGFP that had either 4.7 kb or 2.4 kb length genomes packaged into AAV2 or AAV5 capsids. The data AAV2 capsid viruses were identical to data for rAAV5 viruses. Functional confirmation of scAAV/dsAAV structure was performed by analysis of gene conversion and gene expression rates in Hela cells, sensitivity of transduction in Hela cells to the DNA synthesis inhibitor hydroxyurea (HU), and by denaturing NaHO gel electrophoresis. Polarized airway epithelia were infected with the various vector constructs from the apical membrane in the presence and absence of applied LLnL at the time of infection. Gene expression was monitored by quantitative morphometry of GFP fluorescence at various post-infection time points.

Row | Compound | augmentation in transgene expression ([1]; applied to the serosal surface along with rAAV, 2 days post infection, LLnL 40 μM) | toxicity (histologic evaluation of lung and liver, death of animals) [2] | transgene expression (X-gal staining of lung) [3] | induction of transgene expression from AV2/5 vectors (mouse lung) [fold] | rAAV transduction from the apical surface ([1]; apical infection, data not shown) | effect on gene expression from AV2eGFP and scAV2eGFP (HeLa cells)
1 | CC(C)C[C@@H](C=O)NC(=O)[C@H](CC(C)C)NC(=O)[C@H](CC(C)C)NC(=O)OCc1ccccc1 [Z-LLL, N-carbobenzoxyl-L-leucinyl-L-leucinyl-L-leucinal] (Cbz-Leu-Leu-Leu-aldehyde) | A similar result was achieved | No toxicity | no detectable transgene expression | 10 |  | 
2 | NC(=O)NO [hydroxyurea] |  |  |  |  | none of these agents facilitated rAAV transduction from the apical surface | significantly decreased gene expression from AV2eGFP but not scAV2eGFP virus
